Reference: US4665076A, “Pharmacologically active piperidine derivatives and their use” (Rhone-Poulenc Sante, priority 1984, dated 1987)

Test system: aconitine-induced ventricular arrhythmias
Test: aconitine test in rats (antiarrhythmic activity)
Type: in vivo, male rats
Method: The principle of the technique rests on the time required for inducing ventricular arrhythmias with aconitine slowly perfused in rats. An antiarrhythmic substance delays the appearance of the arrhythmia, and this delay is proportional to the activity of the substance.
Groups of 5 male rats are used. Individual anaesthetisation is carried out (10% urethane: 1 g/kg/ip) to permit catheterisation of the vein of the penis. The electrocardiogram is recorded. At time T=O, the substance studied is injected as an aqueous solution, in the proportion of 2.5 ml of solution per kg, in the course of 30 seconds. At time T=60 seconds, or 30 seconds after completing the injection, aconitine is perfused at the rate of 20 μg per minute until […] extrasystoles appear. The perfusion time of the aconitine is noted. The results are expressed as an ED50, i.e. the dose of the product under test in mg/kg which increases by 50% the perfusion time of aconitine relative to control animals.

## C=C[C@H]1C[N@@]2CC[C@H]1C[C@@H]2[C@@H](O)c1ccnc2ccc(OC)cc12 [Quinidine, reference compound]
  ED50 (dose which increases by 50% the perfusion time of aconitine relative to control animals): 7.5 mg/kg i.v.

## O=C(CCC1CCNCC1)c1ccc2ccccc2c1 [Example 1, 1-(2-Naphthyl)-3-(4-piperidyl)-1-propanone]
  ED50 (dose which increases by 50% the perfusion time of aconitine relative to control animals): 4 mg/kg i.v.

## COc1cc2ccnc(C(O)CCC3CCNCC3)c2cc1OC (stereo not drawn) [Example 7, 1-(6,7-Dimethoxy-1-isoquinolyl)-3-(4-piperidyl)-1-propanol]
  ED50 (dose which increases by 50% the perfusion time of aconitine relative to control animals): 2.5 mg/kg i.v.

## OC(CCC1CCNCC1)c1nccc2ccccc12 (stereo not drawn) [Example 6, 1-(1-Isoquinolyl)-3-(4-piperidyl)-1-propanol]
  ED50 (dose which increases by 50% the perfusion time of aconitine relative to control animals): 2.7 mg/kg i.v.

## COc1cc2ccnc(C(=O)CCC3CCNCC3)c2cc1OC [Example 3, 1-(6,7-Dimethoxy-1-isoquinolyl)-3-(4-piperidyl)-1-propanone]
  ED50 (dose which increases by 50% the perfusion time of aconitine relative to control animals): 2.1 mg/kg i.v.

## CC(C)(C)c1nc(C(O)CCC2CCNCC2)c2ccccc2n1 (stereo not drawn) [Example 8, 1[2-(1,1-Dimethylethyl)-4-quinazolinyl]-3-(4-piperidyl)-1-propanol]
  ED50 (dose which increases by 50% the perfusion time of aconitine relative to control animals): 1 mg/kg i.v.

## OC(CCC1CCNCC1)c1cccc2ccccc12 (stereo not drawn) [Example 5, 1-(1-Naphthyl)-3-(4-piperidyl)-1-propanol]
  ED50 (dose which increases by 50% the perfusion time of aconitine relative to control animals): 1.42 mg/kg i.v.

## NC(CCC1CCNCC1)c1ccc2ccccc2c1 (stereo not drawn) [Example 9, 1-(2-Naphthyl)-3-(4-piperidyl)-1-propanamine]
Rattus norvegicus, iv, read-out: ED50 (dose which increases by 50% the perfusion time of aconitine relative to control animals)
  ED50: < 0.3 mg/kg

## O=C(CCC1CCNCC1)c1cccc2ccccc12 [Example 2, 1-(1-Naphthyl)-3-(4-piperidyl)-1-propanone]
  ED50 (dose which increases by 50% the perfusion time of aconitine relative to control animals): 3.8 mg/kg i.v.
